Reference: patent US12616738B2, “Solid compositions comprising a GLP-1 agonist and a salt of N-(8-(2-hydroxybenzoyl)amino)caprylic acid” (Novo Nordisk A/S, priority 2018, dated 2026)
Like-named read-outs stand apart in the source and are kept apart here.

Columns and labels:
[1] = Assay I: SNAC solubility in combination with selected hydrotropes; details: for Fold increase in solubility: SNAC solubility relative to SNAC control (no hydrotrope), hydrotrope 200 mg/mL, pH 6; for SNAC concentration: hydrotrope 200 mg/mL in ultrapure water, pH 6, 200 mg SNAC added, 4 hours at room temperature, RP-HPLC
[2] = pH 6
[3] = pH 6; remark: listed apart in the source

| Compound | Fold increase in solubility [1] | SNAC concentration [1] | effect on SNAC solubility (FIG. 1) [2] | Fold increase in solubility [3] | SNAC concentration [3] |
| --- | --- | --- | --- | --- | --- |
| O=C(O[C@@H]1Cc2c(O)cc(O)cc2O[C@@H]1c1cc(O)c(O)c(O)c1)c1cc(O)c(O)c(O)c1 [Epigallocatechin gallate] | 9.6 fold | 5.66 mg/mL |  |  |  |
| CCN(CC)C(=O)c1cccnc1 [N,N diethyl nicotinamide] | 7.8 fold | 4.58 mg/mL |  |  |  |
| CN(C)C(=O)c1ccccc1 [N,N dimethyl benzamide] | 38 fold | 22.46 mg/mL |  |  |  |
| NC(=O)c1cccnc1 [Nicotinamide] |  |  | dose dependent effect |  |  |
| O=C([O-])c1ccccc1O.[Na+] [Sodium salicylate] |  |  |  | 2.7 fold | 1.59 mg/mL |
| NC(N)=O [Urea] | 1.3 fold | 0.77 mg/mL |  |  |  |
